Earlier results, collected in US9351926B2 (Pharmaceutical Solutions Industry Ltd., priority 2012, dated 2016).

Assays:
[1] = low dose (e.g. 1200 mg daily); epidemiological studies
platelet aggregation = conditions: single dose 400 mg within 8 hours before or within 30 minutes after immediate release aspirin (81 mg)
[2] = children, overdose

Q: For `CC(C)Cc1ccc(C(C)C(=O)O)cc1` (racemic) [Ibuprofen, (RS)-2-(4-(2-methylpropyl)phenyl) propanoic acid], which “risk of myocardial infarction” value [1] is on record?
A: Its value is “do not suggest that low dose ibuprofen (e.g. 1200 mg daily) is associated with an increased risk of myocardial infarction”.

Q: And the “effect on the action of aspirin on thromboxane formation or platelet aggregation” value (platelet aggregation)?
A: The value was “decreased effect of aspirin on the formation of thromboxane or platelet aggregation”.

Q: What about the Bioavailability (in vivo) of the same compound?
A: The Bioavailability was 49-73%.

Q: What about the Excretion (in vivo) of the same compound?
A: The Excretion was “Renal”.

Q: What about the “concentration in breast milk” value (limited studies) of the same compound?
A: The value was “very low concentrations”.

Q: And the “time of peak serum concentrations after ingestion” value (oral, empty stomach)?
A: The value was 45 min.

Q: What about the “time of peak levels after administration” value (oral, taken with food) of the same compound?
A: Its value is 1 to 2 h.

Q: What about the “ingested dose that may cause symptoms” value [2] of the same compound?
A: The value was “more than 400 mg/kg”.

Q: For `CC(C)Cc1ccc([C@@H](C)C(=O)O)cc1` [HR-form], which “interconversion into the active [+]S species” value (in adults) is on record?
A: The value was roughly 60%.
